From US20090024021A1, “Methods and Systems for Using Transcranial Magnetic Stimulation and Functional Brain Mapping for Examining Cortical Sensitivity, Brain Communication, and Effects of Medication” (priority 2002, published 2009)
Entries after “also recorded” stand apart in the source; their conditions may differ.

Legend:
left motor cortex = assay: Interleaved TMS/phMRI (BOLD fMRI) with TMS over motor cortex; type: in vivo, human; conditions: for Voxels, effect of LTG (between day) / Z-score, effect of LTG (between day): Motor Cortex Stimulation, Placebo-LTG; for Z-score, effect of LTG (between day): p < .001
Method: (§1) Study design: We performed a randomized, double-blind, crossover trial involving two visits at least one week apart (FIG. 8). […] Serum LTG levels, RMTs, and interleaved TMS/phMRI images during both motor and then prefrontal TMS were then gathered for each subject. One week later they received LTG or placebo again, followed by identical RMT and interleaved TMS/phMRI studies.
Combined TMS and MRI: Immediately following RMT determination, interleaved TMS/phMRI acquisitions were performed in a Picker EDGE 1.5 T MR scanner with actively shielded magnet and high-performance gradients (27 mT/m, 72 T/m/sec) using a typical gradient echo, echo planar imaging (EPI) fMRI sequence (tip angle=90, TR=3 sec, FOV 27.0 cm, fifteen 7 mm thick slices, 1 mm gap). TMS was delivered using a Dantec MagPro with a special nonferromagnetic TMS coil of figure-8 design with an 8-meter cable (Dantec Medical A/S, Skovlunde, Denmark) and a room set up identical to prior TMS/fMRI studies from our group. TMS pulses and the fMRI sequence were interleaved as described before^21. Each cycle, illustrated in FIG. 9, consisted of six 21-sec sub-cycles—four Test and two task (100% RMT stimulation and 120% RMT stimulation). During each sub-cycle, the scanner acquired seven sets of 15 transverse images. During the task sub-cycles the TMS was triggered 100 ms after every […] image acquisition to produce a TMS stimulation rate of 1 Hz. The entire TMS/fMRI sequence lasted 882 sec (14.7 min).
TMS Coil Placement in the MRI scanner: Motor cortex: Before being placed into the MRI scanner, subjects had their resting motor threshold (RMT) quickly determined with the Dantec TMS while sitting on the MRI gantry. For many reasons (different capacitors, coil design, length of cable, MRI filter), the RMT determined with the Magstim in the BSL was not the same RMT needed inside the MRI scanner with the Dantec. After this new MRI RMT was determined, the TMS coil was rigidly mounted in the MR head coil with a specially designed TMS coil-holder, adjustable in six dimensions^22. Subjects wore swim caps and special earplugs. With the head coil on the gantry outside the scanner bore, subjects inserted their head into the head coil and adjusted their position while the TMS coil was intermittently pulsed with 100% RMT. Subjects adjusted their head until pulsing the coil caused visible movement of the contralateral (right) hand APB (3 out of 6). As soon as a subject's new MRI RMT-correct scalp location was determined, the holder's six dimensions and earplugs were locked. These head holder settings and RMT were recorded and used with the second visit. During the second MRI visit a week later, the headholder was set with the previous week's coordinates for that subject, and the previous RMT was used for the second visit.
Individual fMRI Data Analyses: MR scans were transferred into ANALYZE format and then further processed on Sun workstations (Sun Microsystems, Palo Alto, Calif.). Scans were checked using MEDx3.3 (Sensor Systems Inc, Sterling, Va.) for movement across runs, and then were coregistered to a mean image using automatic image registration. For all subjects, movement across the 14.7-minute study was less than 2 mm in all 3 axes. After correction of motion, we used a delayed boxcar model, employed a high-pass filter to remove signal drift, cardiac and respiratory effects, and other low frequency artifacts. Then, we spatially transformed each subject's data into the Talairach Atlas (input voxel dimensions, 2.1×2.1×8 mm, to output voxel dimensions, 4×4×4 mm), smoothed (4×2 mm) the data and generated z map with the Statistical Parametric Mapping (SPM) 96 module in MEDx3.3. We assumed an uncorrected F threshold UF P>0.99 to preserve as many voxels as possible for the cluster analysis.
Group fMRI Data Analyses: All subject's unthresholded z maps were combined based on comparison of condition (TMS vs Rest), intensity (100% RMT-TMS vs 120% RMT-TMS), visit (LTG vs Placebo). […]

[1] = Safety and tolerability in the crossover trial; type: in vivo, human; conditions: single oral dose of 325 mg LTG; healthy young men
Method: as §1
General Procedure: After arriving at the laboratory in the early afternoon, baseline RMT was determined and baseline plasma levels of LTG were drawn. They were then given a single oral dose of 325 mg LTG or placebo. They then waited quietly for 3 hours. Three hours after taking the oral pill, RMT was determined and serum plasma levels were again drawn.

## Nc1nnc(-c2cccc(Cl)c2Cl)c(N)n1 [LTG, Lamotrigine]
Left motor cortex; 120% RMT minus rest over motor cortex, 10 subjects, Wilcoxon p=0.05
  number of active voxels in the motor cortex underneath the TMS coil, compared with placebo: significantly decreased
Left motor cortex; LTG day, within day, n = 10, 100% RMT-Rest, Left cingulate gyrus (BA 32), Talairach −4,32,28
  Z-score, region of activation: 3.97
Left motor cortex; LTG day, within day, n = 10, 100% RMT-Rest, Left insula (BA 13), Talairach −36,20,12
  Z-score, region of activation: 3.98
Left motor cortex; LTG day, within day, n = 10, 100% RMT-Rest, Left middle frontal gyrus (BA 46), Talairach −44,40,24
  Z-score, region of activation: 4.59
Left motor cortex; LTG day, within day, n = 10, 100% RMT-Rest, Right insula (BA 13), Talairach 36,8,12
  Z-score, region of activation: 4.26
Left motor cortex; LTG day, within day, n = 10, 100% RMT-Rest, Right middle frontal gyrus (BA 6), Talairach 32,8,52
  Z-score, region of activation: 4.06
Left motor cortex; LTG day, within day, n = 10, 100% RMT-Rest, Right postcentral gyrus (BA 3), Talairach 52,−16,40
  Z-score, region of activation: 3.18
Left motor cortex; LTG day, within day, n = 10, 100% RMT-Rest, Right precentral gyrus, Talairach 40,−4,32
  Z-score, region of activation: 4.31
Left motor cortex; LTG day, within day, n = 10, 120% RMT-100%
  Region of activation: No activity
Left motor cortex; LTG day, within day, n = 10, 120% RMT-Rest, Left medial frontal gyrus (BA 6), Talairach −4,60,0
  Z-score, region of activation: 4.06
Left motor cortex; LTG day, within day, n = 10, 120% RMT-Rest, Left postcentral gyrus (BA 2), Talairach −36,0,4
  Z-score, region of activation: 4.60
Left motor cortex; LTG day, within day, n = 10, 120% RMT-Rest, Left superior temporal gyrus, Talairach −60,8,24
  Z-score, region of activation: 3.14
Left motor cortex; LTG day, within day, n = 10, 120% RMT-Rest, Left thalamus, Talairach −32,8,−24
  Z-score, region of activation: 6.46
Left motor cortex; LTG day, within day, n = 10, 120% RMT-Rest, Right cingulate gyrus, Talairach 4,28,−16
  Z-score, region of activation: 4.33
Left motor cortex; LTG day, within day, n = 10, 120% RMT-Rest, Right middle frontal gyrus (BA 9), Talairach 48,36,12
  Z-score, region of activation: 4.62
Left motor cortex; LTG day, within day, n = 10, 120% RMT-Rest, Right superior temporal gyrus (BA 38), Talairach 40,−12,4
  Z-score, region of activation: 3.14
Left motor cortex; Cerebellum, Right
  Voxels, effect of LTG (between day): 70
Left motor cortex; Cerebellum, Right, Talairach 13,−46,−23
  Z-score, effect of LTG (between day): 3.34
Left motor cortex; Left Precentral gyrus (underneath TMS coil)
  Voxels, effect of LTG (between day): 82
Left motor cortex; Left Precentral gyrus (underneath TMS coil), Talairach −32,−24,52
  Z-score, effect of LTG (between day): 3.87
Left motor cortex; Posterior Cingulate, Left
  Voxels, effect of LTG (between day): 93
Left motor cortex; Posterior Cingulate, Left, Talairach −1,−25,50
  Z-score, effect of LTG (between day): 3.95
Left motor cortex; Precuneus, Left
  Voxels, effect of LTG (between day): 132
Left motor cortex; Precuneus, Left, Talairach −1,−62,50
  Z-score, effect of LTG (between day): 3.48
Left motor cortex; formal between-day analysis, group data in 10 subjects
  TMS-induced activation in the motor cortex (underneath the coil) and other regions, compared to placebo: significantly less; also recorded: reduced
Left motor cortex; left primary motor cortex beneath the coil, 10 subjects, ANOVA F=11.89, p=0.007
  % BOLD signal change in motor cortex compared with placebo: significantly decreased
[1]
  adverse effects of the drug treatment or the stimulation: None of the subjects reported experiencing adverse effects
